Test results taken from publication PMC12197678, “Cvill6 and Cvill7: Potent and Selective Peptide Blockers of Kv1.2 Ion Channel Isolated from Mexican Scorpion Centruroides villegasi” (Toxins, 2025).
Where two headings read alike, the source gives them in different places. Positions of bridges follow the written chain, without caps; N, C: chain ends. Residues, ends and D or L forms follow the SMILES beside them.

Tests used:
hKv11.1 (hERG1) = experiment: Whole-cell patch-clamp, hKv11.1 current in stable HEK293 cells; format: cell-based, human; conditions: 100 nM; ~3 min
Procedure: Appropriate voltage protocols were applied to record the K^+ currents from voltage-clamped cells in whole-cell configurations. Toxins were freshly dissolved in the bath solution supplemented with 0.1 mg/mL BSA and applied to the patched cells via a gravity-fed micro-perfusion system with an approximate flow rate of 200 µL/min.
(§1) HEK 293 cells stably expressing mKCa1.1 1 (BKCa, Kcnma1 gene, generously provided by C. Beeton from Baylor College of Medicine, Houston, TX, USA) or hKv11.1 (hERG1, KCNH2 gene, gifted by H. Wulff from University of California, Davis, CA, USA) were utilized in this study.
Whole-cell currents were recorded using the patch-clamp technique in voltage-clamp mode, following standard protocols [73]. […] Micropipettes were made from GC150F-7.5 borosilicate capillaries (Harvard Apparatus Co., Holliston, MA, USA) using a Sutter P2000 laser puller with tip resistance generally ranging from 3–6 MΩ in the bath solution. Only recordings with a leak current at the holding potential (Vh) of <10% of the peak current at the test potential were included in the data analysis. All recordings were performed at room temperature (20–25 °C). […]

hKv1.5 = format: cell-based, human; conditions: 100 nM; ~3 min
Source text: (§2) For current recordings, Kv1.1, Kv1.2, and Kv1.5 were transiently expressed in CHO cells while for Kv11.1 a stable HEK293 cell line was used. To record Kv1.3 currents human peripheral T lymphocytes were activated with Phytohemagglutinin A (PHA) to boost Kv1.3 expression and Ca^2+-free intracellular solution to prevent the KCa3.1 channel opening. […] Appropriate voltage protocols were applied to record the K^+ currents from voltage-clamped cells in whole-cell configurations. Toxins were freshly dissolved in the bath solution supplemented with 0.1 mg/mL BSA and applied to the patched cells via a gravity-fed micro-perfusion system with an approximate flow rate of 200 µL/min.
Chinese hamster ovary (CHO) cells (generously provided by Yosef Yarden, Weizmann Institute of Science, Rehovot, Israel) or human embryonic kidney (HEK293) cells were cultured and maintained in Dulbecco’s modified Eagle medium (DMEM, Thermo Fisher Scientific, Waltham, MA, USA) supplemented with 2 mM L-glutamine, 10% fetal bovine serum (FBS), 100 µg/mL streptomycin, and 100 U/mL penicillin-g (Sigma-Aldrich, Budapest, Hungary) following standard culturing conditions [52]. For transient expression of ion channels, CHO cells were transfected using the Lipofectamine 2000 kit (Invitrogen, Waltham, MA, USA) following the manufacturer’s instructions with plasmids encoding specific ion channels, including hKv1.1 (KCNA1 gene), hKv1.2 (KCNA2 gene), and hKv1.5 (KCNA5 gene) in a pCMV6-AC-GFP vector (OriGene Technologies), hKCa2.2 (KCNN2 gene) in a pCDN3 plasmid (for this transfection a GFP containing plasmid was co-transfected, courtesy of Bernard Attali, Tel Aviv University, Tel Aviv, Israel), and hKCa3.1 (KCNN4 gene) in a pEGFP-C1 vector (a kind gift by H. Wulff, University of California, Davis, CA, USA). […] Electrophysiological recordings were typically conducted 24 to 48 h after transfection. […]
(§3) Whole-cell currents were recorded using the patch-clamp technique in voltage-clamp mode, following standard protocols [73]. […]

hKv1.1 = molecular target: T1, hKv1.1 (Homo sapiens, UniProt Q09470); experiment: cell-based; format: cell-based; conditions: 100 nM
T1 construct: host or cells: CHO cells, transient transfection (Lipofectamine 2000)
T1 sequence (Q09470 whole entry): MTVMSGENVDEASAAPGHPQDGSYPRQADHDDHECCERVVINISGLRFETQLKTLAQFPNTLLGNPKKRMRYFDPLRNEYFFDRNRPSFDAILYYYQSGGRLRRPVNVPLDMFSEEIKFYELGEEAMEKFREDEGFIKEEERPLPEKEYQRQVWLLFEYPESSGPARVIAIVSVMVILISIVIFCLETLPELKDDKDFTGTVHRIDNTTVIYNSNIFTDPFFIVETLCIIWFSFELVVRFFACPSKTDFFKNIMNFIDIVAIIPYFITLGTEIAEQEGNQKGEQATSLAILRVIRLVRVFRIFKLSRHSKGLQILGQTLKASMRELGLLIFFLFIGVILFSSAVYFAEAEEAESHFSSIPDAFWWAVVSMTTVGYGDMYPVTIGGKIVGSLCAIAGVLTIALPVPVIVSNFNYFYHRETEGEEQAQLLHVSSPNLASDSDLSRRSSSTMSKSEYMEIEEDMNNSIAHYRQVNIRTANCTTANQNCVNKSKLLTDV
Source text: as §2
(§4) Chinese hamster ovary (CHO) cells (generously provided by Yosef Yarden, Weizmann Institute of Science, Rehovot, Israel) or human embryonic kidney (HEK293) cells were cultured and maintained in Dulbecco’s modified Eagle medium (DMEM, Thermo Fisher Scientific, Waltham, MA, USA) supplemented with 2 mM L-glutamine, 10% fetal bovine serum (FBS), 100 µg/mL streptomycin, and 100 U/mL penicillin-g (Sigma-Aldrich, Budapest, Hungary) following standard culturing conditions [52]. For transient expression of ion channels, CHO cells were transfected using the Lipofectamine 2000 kit (Invitrogen, Waltham, MA, USA) following the manufacturer’s instructions with plasmids encoding specific ion channels, including hKv1.1 (KCNA1 gene), hKv1.2 (KCNA2 gene), and hKv1.5 (KCNA5 gene) in a pCMV6-AC-GFP vector (OriGene Technologies), hKCa2.2 (KCNN2 gene) in a pCDN3 plasmid (for this transfection a GFP containing plasmid was co-transfected, courtesy of Bernard Attali, Tel Aviv University, Tel Aviv, Israel), and hKCa3.1 (KCNN4 gene) in a pEGFP-C1 vector (a kind gift by H. Wulff, University of California, Davis, CA, USA). […] Electrophysiological recordings were typically conducted 24 to 48 h after transfection.
(§5) Whole-cell currents were recorded using the patch-clamp technique in voltage-clamp mode, following standard protocols [73]. […] Micropipettes were made from GC150F-7.5 borosilicate capillaries (Harvard Apparatus Co., Holliston, MA, USA) using a Sutter P2000 laser puller with tip resistance generally ranging from 3–6 MΩ in the bath solution. Only recordings with a leak current at the holding potential (Vh) of <10% of the peak current at the test potential were included in the data analysis. All recordings were performed at room temperature (20–25 °C). Control and test solutions were perfused to the cells via a gravity-driven micro-perfusion system and AutoMate Perfusion Pencil Multi-Barrel Manifold Tip (AutoMate Scientific, Berkeley, CA, USA), with an approximate flow rate of 200 µL/min, and the excess amount of bath solution was continuously removed from the recording chamber using vacuum suction.
(§6) The duration of depolarization pulses was 15 ms for Kv1.3 and 50 ms for Kv1.1 and Kv1.5. However, for Kv1.2, 15–500 ms-long pulses were used to achieve the saturated peak current due to the variable activation kinetics of this channel [74].

mKCa1.1 (BK or MaxiK) = format: cell-based, mice; conditions: 100 nM; ~3 min
Source text: Therefore, we investigated the activity of Cvill6 and Cvill7 toxins on three different types of Ca^2+-activated K^+ channels: (1) hKCa2.2 (SK2), the small-conductance Ca^2+-activated channel; (2) hKCa3.1 (IKCa1, SK4), the intermediate-conductance Ca^2+-activated channels, mainly expressed in T lymphocytes; and (3) mKCa1.1 (BK or MaxiK), the large-conductance voltage- and Ca^2+- activated channel of mice. Appropriate depolarization protocols were applied to record the K^+ current through respective KCa channels as shown in the inset of each panel in Figure 6A–C. […] The normalized peak currents (see Section 2.4 or Section 5 for details) for individual cells (n = 5) were averaged at each time point and plotted as a function of time.
as §1, §3

hKCa3.1 (IKCa1, SK4) = molecular target: T2, hKCa3.1 (IKCa1, SK4) (Homo sapiens, UniProt O15554); experiment: Whole-cell patch-clamp, hKCa3.1 current in transfected CHO cells; format: cell-based
T2 construct: expressed in transfected cells; host or cells: CHO cells, transient transfection (Lipofectamine 2000); plasmid a gift of H. Wulff
T2 sequence (O15554 whole entry): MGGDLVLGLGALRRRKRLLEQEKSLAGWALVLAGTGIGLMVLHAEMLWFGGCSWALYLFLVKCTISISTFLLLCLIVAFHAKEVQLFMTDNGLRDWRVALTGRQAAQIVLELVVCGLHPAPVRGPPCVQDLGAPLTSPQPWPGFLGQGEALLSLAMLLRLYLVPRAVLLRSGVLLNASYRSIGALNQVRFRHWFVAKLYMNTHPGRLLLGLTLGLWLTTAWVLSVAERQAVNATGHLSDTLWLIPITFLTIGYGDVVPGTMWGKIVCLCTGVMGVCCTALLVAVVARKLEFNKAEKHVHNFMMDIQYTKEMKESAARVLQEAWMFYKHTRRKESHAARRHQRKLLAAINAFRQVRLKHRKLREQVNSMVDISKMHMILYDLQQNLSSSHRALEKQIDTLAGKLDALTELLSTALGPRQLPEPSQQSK
Source text: The scorpion toxins from the α-KTx 2 family also modulate the function of Ca^2+-activated potassium channels, in addition to Kv1 channels. Therefore, we investigated the activity of Cvill6 and Cvill7 toxins on three different types of Ca^2+-activated K^+ channels: (1) hKCa2.2 (SK2), the small-conductance Ca^2+-activated channel; (2) hKCa3.1 (IKCa1, SK4), the intermediate-conductance Ca^2+-activated channels, mainly expressed in T lymphocytes; and (3) mKCa1.1 (BK or MaxiK), the large-conductance voltage- and Ca^2+- activated channel of mice. Appropriate depolarization protocols were applied to record the K^+ current through respective KCa channels as shown in the inset of each panel in Figure 6A–C. […] Cvill6 reduced ~40% of the KCa3.1 current (Figure 6C), where the RCF value was 0.73 ± 0.05 (n = 5) at 100 nM (Figure 6D). On the other hand, Cvill7 inhibited ~25% of the current at the same concentration (Figure 6C), with an RCF value 0.84 ± 0.03 (n = 5) (Figure 6D). The time course of inhibition of KCa3.1 currents at 100 nM of Cvill6 or Cvill7 is shown in Figure 6E and Figure 6F, respectively. The normalized peak currents (see Section 2.4 or Section 5 for details) for individual cells (n = 5) were averaged at each time point and plotted as a function of time. […] The recovery from the block with Cvill6 to the initial peak current occurred in 4–5 consecutive traces (~0.8 min) and in the case of Cvill7 it took only 2–3 consecutive traces (~0.5 min) after perfusing the cell with toxin-lacking solution. […] The quantity of native toxins was insufficient to conduct the full dose–response curves at this high concentration range (see above).
Chinese hamster ovary (CHO) cells (generously provided by Yosef Yarden, Weizmann Institute of Science, Rehovot, Israel) or human embryonic kidney (HEK293) cells were cultured and maintained in Dulbecco’s modified Eagle medium (DMEM, Thermo Fisher Scientific, Waltham, MA, USA) supplemented with 2 mM L-glutamine, 10% fetal bovine serum (FBS), 100 µg/mL streptomycin, and 100 U/mL penicillin-g (Sigma-Aldrich, Budapest, Hungary) following standard culturing conditions. For transient expression of ion channels, CHO cells were transfected using the Lipofectamine 2000 kit (Invitrogen, Waltham, MA, USA) following the manufacturer’s instructions with plasmids encoding specific ion channels, including hKv1.1 (KCNA1 gene), hKv1.2 (KCNA2 gene), and hKv1.5 (KCNA5 gene) in a pCMV6-AC-GFP vector (OriGene Technologies), hKCa2.2 (KCNN2 gene) in a pCDN3 plasmid (for this transfection a GFP containing plasmid was co-transfected, courtesy of Bernard Attali, Tel Aviv University, Tel Aviv, Israel), and hKCa3.1 (KCNN4 gene) in a pEGFP-C1 vector (a kind gift by H. Wulff, University of California, Davis, CA, USA). Cells expressing GFP were identified using a Nikon TE 2000U fluorescence microscope (Nikon, Tokyo, Japan) with bandpass filters set to 455–495 nm for excitation and 515–555 nm for emission. Electrophysiological recordings were typically conducted 24 to 48 h after transfection.
The extracellular solution (bath solution) for both Kv and KCa channels consisted of 145 mM NaCl, 5 mM KCl, 2.5 mM CaCl2, 1 mM MgCl2, 10 mM HEPES, and 5.5 mM glucose, pH 7.35, and osmolarity between 302 and 308 mOsM/L. For positive control solutions containing various concentrations of tetraethylammoniums (TEA^+), Na^+ was substituted with TEA-Cl in equimolar concentration in the bath solution and all other ingredients remained unchanged. To avoid toxin adsorption onto the plastic surfaces of the perfusion system, 0.1 mg/mL of bovine serum albumin (BSA, Sigma-Aldrich, Budapest, Hungary) was also added into all bath solutions prior to the patch-clamp assay. […]

hKv1.2 = molecular target: T3, hKv1.2 (Homo sapiens, UniProt P16389); experiment: Whole-cell patch-clamp, hKv1.2 current in transiently transfected CHO cells; format: cell-based; conditions: for inhibition at 0.001 µM: 1 nM
T3 construct: host or cells: CHO cells, transient transfection (Lipofectamine 2000)
T3 sequence (P16389 whole entry): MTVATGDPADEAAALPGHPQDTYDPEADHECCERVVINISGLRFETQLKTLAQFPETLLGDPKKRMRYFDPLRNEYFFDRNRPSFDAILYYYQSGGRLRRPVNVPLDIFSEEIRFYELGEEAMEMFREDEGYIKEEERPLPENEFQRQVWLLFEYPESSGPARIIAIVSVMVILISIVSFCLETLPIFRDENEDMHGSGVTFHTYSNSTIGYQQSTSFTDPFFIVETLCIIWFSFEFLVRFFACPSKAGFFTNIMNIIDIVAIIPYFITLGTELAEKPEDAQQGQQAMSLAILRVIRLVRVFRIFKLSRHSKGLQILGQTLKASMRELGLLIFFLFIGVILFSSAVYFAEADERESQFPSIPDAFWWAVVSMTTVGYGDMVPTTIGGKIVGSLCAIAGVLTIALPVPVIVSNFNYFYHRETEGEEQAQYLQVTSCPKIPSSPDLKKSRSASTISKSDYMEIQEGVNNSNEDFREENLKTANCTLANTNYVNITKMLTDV
Source text: as §2, §4, §5, §6

CC[C@H](C)[C@H](N)C(=O)N[C@@H](Cc1ccccc1)C(=O)N[C@H](C(=O)N[C@@H](CC(N)=O)C(=O)N[C@H](C(=O)N[C@@H](CCCCN)C(=O)N[C@H]1CSSC[C@@H]2NC(=O)[C@H](CCCCN)NC(=O)CNC(=O)CNC(=O)[C@H](C)NC(=O)[C@H](Cc3c[nH]cn3)NC(=O)[C@H](CCC(N)=O)NC(=O)CNC(=O)[C@H](Cc3ccccc3)NC(=O)[C@H](CCCNC(=N)N)NC(=O)[C@H](CC(=O)O)NC(=O)[C@H](CCCCN)NC(=O)[C@@H]3CSSC[C@@H](C(=O)N[C@@H](Cc4ccc(O)cc4)C(=O)N4CCC[C@H]4C(=O)O)NC(=O)[C@H](CCCCN)NC(=O)[C@H](CSSC[C@H](NC(=O)[C@H](CCC(N)=O)NC(=O)[C@H](CCC(N)=O)NC(=O)[C@@H]4CCCN4C(=O)[C@H](CC(C)C)NC(=O)[C@H](CC(=O)O)NC1=O)C(=O)N[C@@H](CC(C)C)C(=O)N[C@@H](CCCNC(=N)N)C(=O)N1CCC[C@H]1C(=O)N3)NC(=O)[C@H](CCCCN)NC(=O)CNC(=O)[C@H](CC(N)=O)NC(=O)[C@H]([C@@H](C)CC)NC2=O)C(C)C)[C@@H](C)CC [Cvill6] (H-IFINVKCDLPQQCLRPCKDRFGQHAGGKCINGKCKCYP-OH; disulfide 7-29, 13-34, 17-36 (inferred); N-terminus and C-terminus assumed)
effect on hKv11.1 (hERG1) current (hKv11.1 (hERG1)): no change in current amplitudes | effect on hKv1.5 current (hKv1.5): no change in current amplitudes | effect on hKv1.1 current (hKv1.1): no change in current amplitudes | effect on KCa1.1 current (mKCa1.1 (BK or MaxiK)): Neither Cvill6 nor Cvill7 showed any effect | reversibility of KCa3.1 inhibition (hKCa3.1 (IKCa1, SK4); 100 nM, then toxin-free solution): inhibit the KCa3.1 channel reversibly with quick association and dissociation kinetics | time to steady-state block of KCa3.1 (hKCa3.1 (IKCa1, SK4); 100 nM, 5–6 consecutive traces, n = 5): ~ 1 min | reduction of KCa3.1 current (hKCa3.1 (IKCa1, SK4); 100 nM, representative record): ~ 40% | inhibition at 0.1 µM (hKCa3.1 (IKCa1, SK4); CHO, 100 nM, read-out: inhibition of KCa3.1 current): ~27% | potency estimated from few doses (hKCa3.1 (IKCa1, SK4); CHO, KCa3.1, estimated from a single concentration (100 nM), bimolecular 1:1 interaction, read-out: estimated IC50): ~268 nM | remaining current fraction (RCF, I/I0) (hKCa3.1 (IKCa1, SK4); KCa3.1, 100 nM, mean ± SEM, n = 5): 0.73 ± 0.05 | affinity for KCa3.1 relative to Cvill7 (hKCa3.1 (IKCa1, SK4); estimated IC50 comparison): two-fold higher affinity | time to recovery from KCa3.1 block (hKCa3.1 (IKCa1, SK4); toxin-lacking solution after 100 nM, n = 5): ~ 0.8 min | IC50 (hKv1.2): 3.9 ± 0.27 nM | steady-state block of Kv1.2 (hKv1.2; 100 nM, n = 5): 97 ± 1.2% | inhibition at 0.001 µM (hKv1.2; CHO, representative record, read-out: inhibition of hKv1.2 current): ~28% | inhibition at 0.001 µM (hKv1.2; CHO, screening summary (Figure 3G), read-out: inhibition of hKv1.2 currents): ~16% | koff (hKv1.2; CHO, Kv1.2, calculated from τoff, 100 pM Cvill7 (n = 4) or 100 nM Cvill6 (n = 5)): 0.00091 s⁻¹ | kon (hKv1.2; CHO, Kv1.2, calculated from τon and τoff, 100 pM Cvill7 (n = 4) or 100 nM Cvill6 (n = 5)): 290000 M⁻¹ s⁻¹ | times less potency for Kv1.2 than Cvill7 (hKv1.2; IC50 comparison): 244 times | selectivity for Kv1.2 over Kv1.3 (hKv1.2; IC50 ratio): ~ 215 fold | τon (development of block) (hKv1.2; Kv1.2, 100 nM, mean ± SEM, n = 5): 35 ± 2.7 s | τon, representative fit (hKv1.2; Kv1.2, 100 nM, representative fit (Figure S5C)): 38.7 s | Hill coefficient (H) (hKv1.2; Kv1.2, Hill equation fit of RCF values): 1.4 | τoff (wash-out) (hKv1.2; Kv1.2, after 100 nM, mean ± SEM, n = 5): 1287 ± 259 s | τoff, representative fit (hKv1.2; Kv1.2, after 100 nM, representative fit (Figure S5C)): 776.4 s | Kd (hKv1.2; Kv1.2, koff/kon ratio, 100 nM, read-out: dissociation constant (Kd), koff/kon): 3.3 nM | mode of block (hKv1.2; inferred from Hill coefficients close to 1 and single-exponential kinetics): pore blockers that interact with channels with 1:1 stoichiometry in a bimolecular interaction | recovery of Kv1.2 current, up to % of initial current (hKv1.2; toxin-free solution after 100 nM): up to 65% | reversibility of Kv1.2 block (hKv1.2; wash-out with toxin-free solution): reversible but with very slow dissociation kinetics
